Results on four molecules are retold here after PMC9791135, “A penetratin-derived peptide reduces the membrane permeabilization and cell toxicity of α-synuclein oligomers” (The Journal of Biological Chemistry, 2022).

Assay type in all cases: biochemical
One assay deals with T1, αSOs (Homo sapiens, UniProt P37840).
T1 construct: made in house; host or cells: Escherichia coli BL21 (DE3); oligomers formed by shaking the monomer and isolated by SEC (Superose 6)
As to the kind of experiment: Calcein release assay, αSOs together with peptides. To be noted: for Effect on vesicle permeabilization by αSOs: αSOs at calcein^50% (5.2 μg/ml). The procedure:
αSOs show cytotoxic properties, which have been attributed to their membrane-disrupting ability ([69]). To examine the effect of peptides on membrane permeabilization by αSOs, we used a simple calcein release assay. αSOs, peptides, and aSO–peptide mixtures at 10^−6 to 10^−1 mg/ml peptide were added to calcein-loaded DOPG vesicle, and the extent of calcein release was monitored for 30 min by the increase in fluorescence as calcein leaks out upon membrane permeabilization, leading to dilution and the loss of self-quenching. The time-dependent calcein release data from DOPG vesicles ([70], [71]) in the presence of peptides, αSOs, and αSO–peptides are shown in Figs. S9 and S10. In order to allow easy comparison of all peptides, the calcein release versus concentration (peptides and αSOs) were plotted at the plateau point of release (Fig. 5, A–C). […] Figure 5D compares calcein release percentages of data represented in Figure 5, A and B at peptide concentrations between 0.001 and 0.1 mg/ml, where we see the largest extent of calcein release in general.
Calcein-filled vesicles of DOPG were prepared as described before ([38]). Briefly, DOPG was dissolved in PBS to […], in the presence of calcein at self-quenching concentrations (70 mM) and subjected to 10 freeze–thaw cycles between liquid nitrogen and a 50 °C water bath. After 21 times extrusion through a 100 nm filter, free calcein was separated from vesicles with a PD-10 desalting column (GE Healthcare). Vesicles were stored at 4 °C and used for calcein release assays within 24 h.
Calcein release was measured by mixing peptides and/or αSOs at a final concentration of 10^−6 to 10^−1 mg/ml and 5.2 μg/ml, respectively, in 148 μl with 2 μl of calcein vesicles, and were then loaded onto a 96-well plate (Nunc, Thermo Fischer Scientific) in triplicate. The plate was sealed with Crystal clear sealing tape (Hampton Research), and fluorescence was measured (excitation: 485 nm and emission: 520 nm) for 1 h at 37 °C every 2 min with a 2 s autoshake before each reading on a fluorescence plate reader (Tecan). Finally, 2 μl Triton X-100 (0.2% [v/v]) was added to lyse vesicles, and the maximal fluorescence signal was measured for 20 min under the same reading condition. Background fluorescence was subtracted, and the average signal of calcein release before addition of Triton X-100 (F), after treatment with Triton X-100 (Ft) and for the buffer control (F0) were determined, and calcein release percentage was calculated as follow (Equation 1):(1) CalceinRelease%(CR%)=(F−F0)/(Ft−F0)

For assay [1], the target named is T2, α-syn (Homo sapiens, UniProt P37840).
T2 construct: made in house; host or cells: Escherichia coli BL21 (DE3), plasmid pET11-D
As to the kind of experiment: ATR–FTIR of fibrillated α-syn–peptide samples. The note with it: for ATR–FTIR (amyloid structures): fibrillated samples after washing, versus α-syn alone; for Amount of amyloid structures (ATR–FTIR), in words: fibrillated α-syn samples in the presence of peptides. From the text:
To analyze the secondary structure of the final aggregates, we recorded far-UV CD and attenuated total reflectance (ATR)–FTIR spectra for fibrillated samples after washing to remove free α-syn and peptides. […] Overall, as the concentration of peptides increases, the intensity of signal at 218 nm decreases (Fig. 4A). We observed that α-syn fibrils formed in the presence of p194, p222, p235, and p249 precipitated rapidly after mixing with these peptides. This likely gives rise to light scattering, which reduces CD signals. To overcome these artifacts, we turned to ATR–FTIR spectroscopy, which is not sensitive to scattering. […] Both far-UV CD and ATR–FTIR spectroscopy confirm extensive β-sheet structure. However, in the presence of peptides, some structural changes were observed as reflected by the decrease in the amyloid cross β-sheet structure at ∼1629 cm^−1 and increases in the random and coil structures (∼1656 and ∼1676 cm^−1, respectively) (Table 2). […] Taking all together, ATR–FTIR data are in reasonable agreement with far-UV CD.
The samples prepared in the CD section were also used to measure FTIR spectra on a Tensor 27 FTIR spectrophotometer (Bruker). About 2 μl α-syn fibrils were dried on the ATR crystal with a gentle stream of nitrogen gas. Spectra were accumulations of 68 scans in the 4000 to 1000 cm^−1 range. Baseline correlation, second derivative, and atmospheric compensation were performed with OPUS 5.5 software (Bruker, Germany). Signals in the amide I region (∼1550–1700 cm^−1) were smoothed and deconvoluted with PeakFit, version 4.12 software (ِSystat Software Inc) using Lorentzian fitting.

Assay [2] addresses T2, α-syn. As to the kind of experiment: SDS-PAGE of soluble α-syn left in supernatant after fibrillation. The note with it: for Amount of soluble α-syn monomer left in the supernatant, in words: SDS-PAGE after centrifugation of fibrillated samples; for Soluble α-syn left in supernatant (SDS-PAGE gel): after end of incubation, centrifuged 13,000 rpm 15 min, versus α-syn alone. The procedure: Overall, there was a reasonable but not perfect correspondence between SDS-PAGE and ThT data.
To determine the amount of soluble α-syn, fibrillated samples were centrifuged (13,000 rpm, 15 min) and the supernatants were loaded on Bis–Tris 15% acrylamide gel with prestained protein ladder (Thermo Scientific) and run in a Bis–Tris running buffer at 150 V for 70 min, stained for 20 min in Coomassie brilliant blue (1.2 mM Coomassie brilliant blue, 5% ethanol, and 7% acetic acid), and destained overnight in a destaining solution (5% ethanol and 5% acetic acid). Gel bands were quantified using ImageJ.

The target in assay [3] is T2, α-syn. Briefly: TEM of α-syn aggregates formed with peptides. To be noted: for Morphology of α-syn aggregates (TEM), in words: α-syn incubated in the presence of peptide; for Morphology (TEM): α-syn aggregates after incubation with peptide, versus α-syn alone. The procedure: Five microliters of each fibril-containing solution were applied to 400-mesh carbon-coated and glow-discharged nickel grids for 30 s, and blotted with filter paper to remove excess sample. The grids were washed with one drop of double distilled water and then stained with 3 μl of 1% uranyl formate for 15 s. Excess stain was removed by blotting paper This step was repeated two more times. Finally, the grids were left to air dry and viewed on a Tecnai G2 Spirit (FEI Company) operating at 60 kV, and images were taken using a TemCam F416 camera (TVIPS).

Where a SMILES comes first, the peptide text is derived from it.

`CC[C@H](C)[C@H](NC(=O)[C@H](Cc1ccccc1)NC(=O)[C@H](Cc1c[nH]c2ccccc12)NC(=O)[C@H](CCCNC(=N)N)NC(=O)[C@H](CC(N)=O)NC(=O)[C@@H](NC(=O)[C@H](CCC(N)=O)NC(=O)[C@H](CCCCN)NC(=O)[C@@H](N)CCSC)[C@@H](C)CC)C(=O)N[C@@H](CCCNC(=N)N)C(=O)N[C@@H](Cc1c[nH]c2ccccc12)C(=O)N[C@@H](CCC(N)=O)C(=O)N[C@@H](CCCCN)C(=O)N[C@@H](CCCCN)C(=O)N[C@@H](CCCNC(=N)N)C(=O)N[C@@H](CCCCN)C(=O)O` [p249] (H-MKQINRWFIRWQKKRK-OH; N-terminus and C-terminus assumed): the “Reduction of αSO-induced membrane permeability” value at αSOs (calcein-filled DOPG LUVs, peptide concentration not stated at the place) was 62%. For the same molecule, on α-syn [1], the “ATR–FTIR (amyloid structures)” value is “↓↓↓ amyl” and the “Amount of amyloid structures (ATR–FTIR), in words” value (“Amount of amyloid structures” below) is given as “decreased”. At α-syn [2], the “Amount of soluble α-syn monomer left in the supernatant, in words” value (“Amount of soluble α-syn monomer left” below) was “decrease solubility” and the “Soluble α-syn left in supernatant (SDS-PAGE gel)” value is recorded as “↓↓”. Further, the “Morphology of α-syn aggregates (TEM), in words” value (from here on “Morphology of α-syn aggregates”) at α-syn [3] is reported as “nonfibrillar (amorphous) accumulations”.

Consider `CC[C@H](C)[C@H](NC(=O)[C@H](Cc1c[nH]c2ccccc12)NC(=O)[C@H](CCCNC(=N)N)NC(=O)[C@H](Cc1c[nH]c2ccccc12)NC(=O)[C@H](CCCCN)NC(=O)[C@@H](NC(=O)[C@H](CCCCN)NC(=O)[C@H](CCC(N)=O)NC(=O)[C@@H](N)CC(N)=O)[C@@H](C)CC)C(=O)N[C@@H](CCC(N)=O)C(=O)N[C@@H](CCCNC(=N)N)C(=O)N[C@@H](Cc1ccccc1)C(=O)N[C@@H](CCCNC(=N)N)C(=O)N[C@@H](CCCCN)C(=O)N[C@@H](CCCCN)C(=O)N[C@@H](CCSC)C(=O)O` [p235] (H-NQKIKWRWIQRFRKKM-OH; N-terminus and C-terminus assumed), for which, on α-syn [1], the “ATR–FTIR (amyloid structures)” value is “↓↓↓ amyl” and the “Amount of amyloid structures” value was “decreased”. The “Morphology of α-syn aggregates” value on α-syn [3] was “nonfibrillar (amorphous) accumulations”.

In the case of `CC(C)C[C@H](NC(=O)[C@H](Cc1c[nH]cn1)NC(=O)[C@H](CO)NC(=O)[C@H](CO)NC(=O)[C@H](C)NC(=O)[C@@H](N)CO)C(=O)N[C@@H](Cc1c[nH]cn1)C(=O)N[C@@H](Cc1c[nH]cn1)C(=O)NCC(=O)N[C@@H](Cc1c[nH]cn1)C(=O)N[C@@H](CO)C(=O)NCC(=O)NCC(=O)O` [p168] (H-SASSHLHHGHSGG-OH), at αSOs (peptide 10^−6 to 10^−1 mg/ml), the “Effect on vesicle permeabilization by αSOs” value is “failed to affect vesicle permeabilization by αSOs”. The “Amount of amyloid structures” value at α-syn [1] is on record as “did not show significant changes in FTIR spectra”. The “Amount of soluble α-syn monomer left” value at α-syn [2] is “decrease solubility”. Besides, at α-syn [3], the “Morphology (TEM)” value is on record as “L, T, I”; the “Morphology of α-syn aggregates” value is “longer and thinner fibrils”.

In the case of “RQIKIWFQNRRFKWKK [p222, penetratin with modulated hydrophobicity]”, the “Effect on vesicle permeabilization by αSOs” value at αSOs (peptide 0.01 and 0.1 mg/ml) is listed as “increased vesicle permeabilization by αSOs”. In addition, on α-syn [1], the “ATR–FTIR (amyloid structures)” value is listed as “↓↓ amyl” and the “Amount of amyloid structures” value is given as “decreased”. Moreover, at α-syn [2], the “Amount of soluble α-syn monomer left” value is “decrease solubility” and the “Soluble α-syn left in supernatant (SDS-PAGE gel)” value is listed as “↓↓”. On α-syn [3], the “Morphology (TEM)” value is recorded as “S, N”; the “Morphology of α-syn aggregates” value was “needle-shaped and short fibrils”.
